Assay results reported in patent publication US20230398130A1, “METHODS AND COMPOSITIONS FOR DIFFERENTIATING STEM CELLS” (Massachusetts Institute of Technology, priority 2020, published 2023).

What was measured:
[1] = tested on: ISC-enriched organoids; assay: Primary screen, 384-well 2.5-D organoid differentiation (ENR+CD, 6 days): basal lysozyme secretion (LYZ.NS); assay type: cell-based, murine; conditions: for Dose.FC.LYZ.NS: FC vs plate median; for SSMD.LYZ.NS: strictly standardized mean difference
From the text: (§1) High-throughput screening.

[2] = tested on: ISC-enriched organoids; assay: Primary screen, 384-well 2.5-D organoid differentiation (ENR+CD, 6 days): carbachol-induced lysozyme secretion (LYZ.S); assay type: cell-based, murine; conditions: for Dose.FC.LYZ.S: FC vs plate median; for Z.LYZ.S: standard z score; for SSMD.LYZ.S: strictly standardized mean difference
From the text: as §1

[3] = tested on: ISC-enriched organoids; assay: Primary screen, 384-well 2.5-D organoid differentiation (ENR+CD, 6 days, Target Selective Inhibitor Library, vs whole-plate median): ATP (CellTiter-Glo 3D, CTG); conditions: for Dose.FC.CTG: FC vs plate median; for SSMD.CTG: strictly standardized mean difference
[4] = Dose 0.08 uM, primary screen, standard z score
[5] = Dose 0.40 uM, primary screen, standard z score
[6] = Dose 2.00 uM, primary screen, standard z score
[7] = Dose 10.00 uM, primary screen, standard z score
[8] = primary screen, 1st of the 4 dose lines of the treatment (dose not given)
[9] = primary screen, 2nd of the 4 dose lines of the treatment (dose not given)
[10] = primary screen, 3rd of the 4 dose lines of the treatment (dose not given)
[11] = primary screen, 4th of the 4 dose lines of the treatment (dose not given)
[12] = Dose 0.08 uM, standard z score of FC
[13] = Dose 0.40 uM, standard z score of FC
[14] = Dose 2.00 uM, standard z score of FC
[15] = Dose 10.00 uM, standard z score of FC

**Q.** `Cc1ccc(C(=O)N(CCCN)[C@@H](c2nc3cc(Cl)ccc3c(=O)n2Cc2ccccc2)C(C)C)cc1` [Ispinesib (SB-715992)] was tested. Which Dose.FC.LYZ.NS ([1]; Dose 0.08 uM, primary screen) did it give?
**A.** −0.222 log 2 fold change

**Q.** What about the Z.LYZ.NS [1, 4] of the same compound?
**A.** −1.931

**Q.** What about the Dose.FC.LYZ.NS ([1]; Dose 0.40 uM, primary screen) of the same compound?
**A.** −0.191 log 2 fold change

**Q.** What about the Z.LYZ.NS [1, 5] of the same compound?
**A.** −1.663

**Q.** And the Dose.FC.LYZ.NS ([1]; Dose 2.00 uM, primary screen)?
**A.** −0.196 log 2 fold change

**Q.** What about the Z.LYZ.NS [1, 6] of the same compound?
**A.** −1.709

**Q.** What about the Dose.FC.LYZ.NS ([1]; Dose 10.00 uM, primary screen) of the same compound?
**A.** −0.201 log 2 fold change

**Q.** And the Z.LYZ.NS [1, 7]?
**A.** −1.752

**Q.** What about the SSMD.LYZ.NS [1, 8] of the same compound?
**A.** −1.681

**Q.** And the SSMD.LYZ.NS [1, 9]?
**A.** −1.354

**Q.** And the SSMD.LYZ.NS [1, 10]?
**A.** −1.617

**Q.** What about the SSMD.LYZ.NS [1, 11] of the same compound?
**A.** −1.093

**Q.** What about the Dose.FC.LYZ.S ([2]; Dose 0.08 uM, primary screen) of the same compound?
**A.** −0.271 log 2 fold change

**Q.** And the Dose.FC.LYZ.S ([2]; Dose 0.40 uM, primary screen)?
**A.** −0.296 log 2 fold change

**Q.** What about the Dose.FC.LYZ.S ([2]; Dose 2.00 uM, primary screen) of the same compound?
**A.** −0.287 log 2 fold change

**Q.** And the Dose.FC.LYZ.S ([2]; Dose 10.00 uM, primary screen)?
**A.** −0.286 log 2 fold change

**Q.** And the Z.LYZ.S [2, 8]?
**A.** −1.753

**Q.** And the Z.LYZ.S [2, 9]?
**A.** −1.914

**Q.** What about the Z.LYZ.S [2, 10] of the same compound?
**A.** −1.859

**Q.** And the Z.LYZ.S [2, 11]?
**A.** −1.850

**Q.** What about the SSMD.LYZ.S [2, 8] of the same compound?
**A.** −1.495

**Q.** And the SSMD.LYZ.S [2, 9]?
**A.** −1.509

**Q.** What about the SSMD.LYZ.S [2, 10] of the same compound?
**A.** −1.657

**Q.** What about the SSMD.LYZ.S [2, 11] of the same compound?
**A.** −1.525

**Q.** What about the Dose.FC.CTG ([3]; Dose 0.08 uM, primary screen) of the same compound?
**A.** −0.323 log 2 fold change

**Q.** What about the Z.CTG [3, 4] of the same compound?
**A.** −0.772

**Q.** And the Dose.FC.CTG ([3]; Dose 0.40 uM, primary screen)?
**A.** −0.518 log 2 fold change

**Q.** What about the Z.CTG [3, 5] of the same compound?
**A.** −1.238

**Q.** What about the Dose.FC.CTG ([3]; Dose 2.00 uM, primary screen) of the same compound?
**A.** −0.511 log 2 fold change

**Q.** And the Z.CTG [3, 6]?
**A.** −1.220

**Q.** What about the Dose.FC.CTG ([3]; Dose 10.00 uM, primary screen) of the same compound?
**A.** −0.713 log 2 fold change

**Q.** What about the Z.CTG [3, 7] of the same compound?
**A.** −1.704

**Q.** And the SSMD.CTG [3, 8]?
**A.** −0.942

**Q.** And the SSMD.CTG [3, 9]?
**A.** −0.971

**Q.** And the SSMD.CTG [3, 10]?
**A.** −1.118

**Q.** And the SSMD.CTG [3, 11]?
**A.** −1.236

**Q.** Which Dose.FC.LYZ.NS ([1]; Dose 0.08 uM, ENR+CD, 6 days) does the source give for `CC(C)NC[C@@H](C(=O)N1CCN(c2ncnc3c2[C@H](C)C[C@H]3O)CC1)c1ccc(Cl)cc1` [GDC-0068] here?
**A.** 0.036 log 2 fold change

**Q.** What about the Z.LYZ.NS [1, 12] of the same compound?
**A.** 0.311

**Q.** And the Dose.FC.LYZ.NS ([1]; Dose 0.40 uM, ENR+CD, 6 days)?
**A.** 0.054 log 2 fold change

**Q.** What about the Z.LYZ.NS [1, 13] of the same compound?
**A.** 0.469

**Q.** And the Dose.FC.LYZ.NS ([1]; Dose 2.00 uM, ENR+CD, 6 days)?
**A.** −0.077 log 2 fold change

**Q.** What about the Z.LYZ.NS [1, 14] of the same compound?
**A.** −0.675

**Q.** What about the Dose.FC.LYZ.NS ([1]; Dose 10.00 uM, ENR+CD, 6 days) of the same compound?
**A.** −0.185 log 2 fold change

**Q.** And the Z.LYZ.NS [1, 15]?
**A.** −1.613

**Q.** What about the Dose.FC.LYZ.S ([2]; Dose 0.08 uM, ENR+CD, 6 days) of the same compound?
**A.** 0.076 log 2 fold change

**Q.** What about the Dose.FC.LYZ.S ([2]; Dose 0.40 uM, ENR+CD, 6 days) of the same compound?
**A.** 0.087 log 2 fold change

**Q.** And the Dose.FC.LYZ.S ([2]; Dose 2.00 uM, ENR+CD, 6 days)?
**A.** −0.059 log 2 fold change

**Q.** And the Dose.FC.LYZ.S ([2]; Dose 10.00 uM, ENR+CD, 6 days)?
**A.** −0.319 log 2 fold change

**Q.** And the Dose.FC.CTG ([3]; Dose 0.08 uM, ENR+CD, 6 days)?
**A.** 0.042 log 2 fold change

**Q.** What about the Z.CTG [3, 12] of the same compound?
**A.** 0.099

**Q.** What about the Dose.FC.CTG ([3]; Dose 0.40 uM, ENR+CD, 6 days) of the same compound?
**A.** 0.118 log 2 fold change

**Q.** And the Z.CTG [3, 13]?
**A.** 0.283

**Q.** And the Dose.FC.CTG ([3]; Dose 2.00 uM, ENR+CD, 6 days)?
**A.** 0.184 log 2 fold change

**Q.** And the Z.CTG [3, 14]?
**A.** 0.439

**Q.** And the Dose.FC.CTG ([3]; Dose 10.00 uM, ENR+CD, 6 days)?
**A.** −0.100 log 2 fold change

**Q.** What about the Z.CTG [3, 15] of the same compound?
**A.** −0.238
